Article PMC4516925, “Three Peptide Modulators of the Human Voltage-Gated Sodium Channel 1.7, an Important Analgesic Target, from the Venom of an Australian Tarantula” (Toxins, 2015)
Entries after “also recorded” stand apart in the source; their conditions may differ. Where a SMILES comes first, the peptide text is derived from it. Bridges are numbered along the chain shown (N, C = ends).

What was measured:
[1] = test system: sodium channel domain II voltage sensor; conditions: gating modifier; cited from earlier work
NaV channels = conditions: cited from earlier work
From the text: Approximately 12% of spider toxins are C-terminally amidated. In addition to a possible role in peptide stability, C-terminal amidation can modulate biological activity. The 35-residue spider-venom peptide huwentoxin-IV (HwTx-IV) is a member of NaSpTx Family 1 isolated from venom of the tarantula Haplopelma schmidti (formerly known as Ornithoctonus huwena). Remarkably, native HwTx-IV with C-terminal amidation inhibits hNaV1.7 with is ~50-fold higher potency than a recombinant version with a C-terminal carboxylate group. […] Thus, we investigated the effects of Phlogius peptides on the current-voltage (I-V) relationship for hNaV1.7 using step-depolarisations ranging from −60 to +70 mV from a holding potential of −80 mV.

NaV1.2 [2] = conditions: cited from earlier work
NaV1.5 = conditions: cited from earlier work
NaV1.2 [3] = conditions: chimeric KV1.2/NaV1.2 channels; rat NaV1.2; cited from earlier work
hNaV1.5 = biological target: T1, hNaV1.5 (Homo sapiens, UniProt Q14524); experiment: Inhibition of hNaV1.5 currents, two-electrode voltage clamp in Xenopus oocytes; assay type: cell-based; conditions: TEVC
T1 construct: expressed in transfected cells; host or cells: Xenopus oocytes (cRNA injection)
T1 sequence (Q14524 whole entry): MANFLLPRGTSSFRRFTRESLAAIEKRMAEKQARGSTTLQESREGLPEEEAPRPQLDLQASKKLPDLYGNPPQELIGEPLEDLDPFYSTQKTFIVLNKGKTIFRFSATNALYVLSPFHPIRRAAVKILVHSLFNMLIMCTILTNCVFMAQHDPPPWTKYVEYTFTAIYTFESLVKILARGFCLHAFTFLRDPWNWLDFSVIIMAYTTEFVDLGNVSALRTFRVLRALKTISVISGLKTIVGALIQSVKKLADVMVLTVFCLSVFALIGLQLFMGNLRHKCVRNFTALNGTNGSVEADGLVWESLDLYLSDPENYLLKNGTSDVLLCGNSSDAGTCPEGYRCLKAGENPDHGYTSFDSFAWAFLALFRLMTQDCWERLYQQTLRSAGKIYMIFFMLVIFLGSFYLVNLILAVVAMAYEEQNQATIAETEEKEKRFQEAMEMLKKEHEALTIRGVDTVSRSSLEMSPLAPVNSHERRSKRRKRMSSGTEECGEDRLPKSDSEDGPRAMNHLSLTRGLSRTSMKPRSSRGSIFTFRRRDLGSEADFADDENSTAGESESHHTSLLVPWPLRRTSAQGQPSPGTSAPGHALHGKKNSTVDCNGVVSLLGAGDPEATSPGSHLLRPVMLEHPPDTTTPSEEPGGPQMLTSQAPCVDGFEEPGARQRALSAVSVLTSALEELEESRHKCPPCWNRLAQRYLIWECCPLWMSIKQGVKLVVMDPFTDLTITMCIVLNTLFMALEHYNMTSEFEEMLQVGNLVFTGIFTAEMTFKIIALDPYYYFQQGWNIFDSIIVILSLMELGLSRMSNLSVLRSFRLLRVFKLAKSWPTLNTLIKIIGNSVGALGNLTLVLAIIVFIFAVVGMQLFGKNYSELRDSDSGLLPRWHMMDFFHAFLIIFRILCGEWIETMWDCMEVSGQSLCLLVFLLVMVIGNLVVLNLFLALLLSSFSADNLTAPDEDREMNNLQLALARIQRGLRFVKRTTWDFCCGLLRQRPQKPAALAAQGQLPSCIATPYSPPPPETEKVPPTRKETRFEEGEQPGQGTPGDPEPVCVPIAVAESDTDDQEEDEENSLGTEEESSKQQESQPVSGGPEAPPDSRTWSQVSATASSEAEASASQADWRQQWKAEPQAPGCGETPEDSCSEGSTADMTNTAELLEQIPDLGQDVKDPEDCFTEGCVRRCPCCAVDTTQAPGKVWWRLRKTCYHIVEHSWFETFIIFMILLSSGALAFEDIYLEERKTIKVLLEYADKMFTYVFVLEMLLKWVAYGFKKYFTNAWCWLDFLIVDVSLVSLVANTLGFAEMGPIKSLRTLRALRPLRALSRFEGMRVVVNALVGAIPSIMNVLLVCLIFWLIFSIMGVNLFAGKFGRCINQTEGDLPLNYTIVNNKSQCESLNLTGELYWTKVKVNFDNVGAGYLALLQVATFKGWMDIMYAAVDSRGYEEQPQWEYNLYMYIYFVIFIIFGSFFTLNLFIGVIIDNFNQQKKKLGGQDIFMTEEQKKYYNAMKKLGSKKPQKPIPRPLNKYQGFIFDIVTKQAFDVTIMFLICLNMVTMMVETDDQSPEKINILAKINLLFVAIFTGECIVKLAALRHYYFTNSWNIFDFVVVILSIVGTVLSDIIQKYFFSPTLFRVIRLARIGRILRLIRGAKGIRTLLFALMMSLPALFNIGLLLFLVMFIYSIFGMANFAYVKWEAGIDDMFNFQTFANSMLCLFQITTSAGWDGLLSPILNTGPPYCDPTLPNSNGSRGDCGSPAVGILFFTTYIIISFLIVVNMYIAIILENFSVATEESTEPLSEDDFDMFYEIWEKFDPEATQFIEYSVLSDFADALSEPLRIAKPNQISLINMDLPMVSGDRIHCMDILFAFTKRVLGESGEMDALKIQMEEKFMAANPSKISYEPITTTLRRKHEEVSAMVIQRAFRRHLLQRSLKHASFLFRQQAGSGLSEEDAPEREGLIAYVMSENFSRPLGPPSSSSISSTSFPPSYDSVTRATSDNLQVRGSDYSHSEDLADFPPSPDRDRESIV
Experimental: (§1) Plasmids containing cloned rNaV1.2, hNaV1.5 and hNaV1.7 were linearised, then capped cRNAs were synthesised using a T7 mMESSAGE-mMACHINE transcription kit (Ambion, Austin, TX, USA). Stage V-VI oocytes were obtained from anesthetised Xenopus frogs and prepared as previously described. Oocytes were injected with 20–40 ng of cRNA (Nanoject 2000; WPI, Sarasota, FL, USA) and incubated for 2–6 days at 17 °C in ND96 solution (96 mM NaCl, 2 mM KCl, 1 mM CaCl2, 2 mM MgCl2, 5 mM HEPES, pH 7.4), supplemented with 2.5 mM sodium pyruvate, 50 μg/mL gentamicin and 2.5% horse serum prior to electrophysiological recordings. All work with animals was carried out in strict accordance with the recommendations in the Australian code of practice for the care and use of animals for scientific purposes. The protocol was approved by the Anatomical Biosciences group of the Animal Ethics Committee at The University of Queensland (Approval Number QBI/059/13/ARC/NHMRC).
(§2) Two-electrode voltage clamp (TEVC) recordings were performed at room temperature (20 °C–22 °C) under voltage-clamp (Axoclamp 900A, Molecular Devices, Sunnyvale, CA, USA) using two standard glass microelectrodes of 0.5–1 MΩ resistance when filled with 3 M KCl solution. Stimulation, data acquisition, and analysis were performed using pCLAMP software (Version 10, Molecular Devices, Sunnyvale, CA, USA). Peptide stock solutions were made up to 30 μM, and serial dilutions were prepared in ND96 solution (pH 7.4) containing 0.1% bovine serum albumin (BSA). Venom peptides were applied directly to the recording chamber to prevent adsorption to plastics.
NaV channel recordings were performed on oocytes clamped at −80 mV. Data were sampled at 20 kHz and filtered at 2 kHz. Inward sodium currents were elicited by a 50-ms depolarising step to 0 mV every 10 s. […] Data were analysed using Clampfit 10.2 and Prism 6.0 (GrahPad Software, La Jolla, CA, USA, 2013). […] Data were normalised to the maximal peak current and analysed using Clampfit 10.2 and Prism 6.0.

rNaV1.2 = biological target: T2, rNaV1.2 (Rattus norvegicus, UniProt P04775); experiment: Inhibition of rNaV1.2 currents, two-electrode voltage clamp in Xenopus oocytes; assay type: cell-based; conditions: TEVC; for inhibition at 1 µM: 1 μM peptide, 50-ms step to 0 mV from −80 mV every 10 s
T2 construct: expressed in transfected cells; host or cells: Xenopus oocytes (cRNA injection)
T2 sequence (P04775 whole entry): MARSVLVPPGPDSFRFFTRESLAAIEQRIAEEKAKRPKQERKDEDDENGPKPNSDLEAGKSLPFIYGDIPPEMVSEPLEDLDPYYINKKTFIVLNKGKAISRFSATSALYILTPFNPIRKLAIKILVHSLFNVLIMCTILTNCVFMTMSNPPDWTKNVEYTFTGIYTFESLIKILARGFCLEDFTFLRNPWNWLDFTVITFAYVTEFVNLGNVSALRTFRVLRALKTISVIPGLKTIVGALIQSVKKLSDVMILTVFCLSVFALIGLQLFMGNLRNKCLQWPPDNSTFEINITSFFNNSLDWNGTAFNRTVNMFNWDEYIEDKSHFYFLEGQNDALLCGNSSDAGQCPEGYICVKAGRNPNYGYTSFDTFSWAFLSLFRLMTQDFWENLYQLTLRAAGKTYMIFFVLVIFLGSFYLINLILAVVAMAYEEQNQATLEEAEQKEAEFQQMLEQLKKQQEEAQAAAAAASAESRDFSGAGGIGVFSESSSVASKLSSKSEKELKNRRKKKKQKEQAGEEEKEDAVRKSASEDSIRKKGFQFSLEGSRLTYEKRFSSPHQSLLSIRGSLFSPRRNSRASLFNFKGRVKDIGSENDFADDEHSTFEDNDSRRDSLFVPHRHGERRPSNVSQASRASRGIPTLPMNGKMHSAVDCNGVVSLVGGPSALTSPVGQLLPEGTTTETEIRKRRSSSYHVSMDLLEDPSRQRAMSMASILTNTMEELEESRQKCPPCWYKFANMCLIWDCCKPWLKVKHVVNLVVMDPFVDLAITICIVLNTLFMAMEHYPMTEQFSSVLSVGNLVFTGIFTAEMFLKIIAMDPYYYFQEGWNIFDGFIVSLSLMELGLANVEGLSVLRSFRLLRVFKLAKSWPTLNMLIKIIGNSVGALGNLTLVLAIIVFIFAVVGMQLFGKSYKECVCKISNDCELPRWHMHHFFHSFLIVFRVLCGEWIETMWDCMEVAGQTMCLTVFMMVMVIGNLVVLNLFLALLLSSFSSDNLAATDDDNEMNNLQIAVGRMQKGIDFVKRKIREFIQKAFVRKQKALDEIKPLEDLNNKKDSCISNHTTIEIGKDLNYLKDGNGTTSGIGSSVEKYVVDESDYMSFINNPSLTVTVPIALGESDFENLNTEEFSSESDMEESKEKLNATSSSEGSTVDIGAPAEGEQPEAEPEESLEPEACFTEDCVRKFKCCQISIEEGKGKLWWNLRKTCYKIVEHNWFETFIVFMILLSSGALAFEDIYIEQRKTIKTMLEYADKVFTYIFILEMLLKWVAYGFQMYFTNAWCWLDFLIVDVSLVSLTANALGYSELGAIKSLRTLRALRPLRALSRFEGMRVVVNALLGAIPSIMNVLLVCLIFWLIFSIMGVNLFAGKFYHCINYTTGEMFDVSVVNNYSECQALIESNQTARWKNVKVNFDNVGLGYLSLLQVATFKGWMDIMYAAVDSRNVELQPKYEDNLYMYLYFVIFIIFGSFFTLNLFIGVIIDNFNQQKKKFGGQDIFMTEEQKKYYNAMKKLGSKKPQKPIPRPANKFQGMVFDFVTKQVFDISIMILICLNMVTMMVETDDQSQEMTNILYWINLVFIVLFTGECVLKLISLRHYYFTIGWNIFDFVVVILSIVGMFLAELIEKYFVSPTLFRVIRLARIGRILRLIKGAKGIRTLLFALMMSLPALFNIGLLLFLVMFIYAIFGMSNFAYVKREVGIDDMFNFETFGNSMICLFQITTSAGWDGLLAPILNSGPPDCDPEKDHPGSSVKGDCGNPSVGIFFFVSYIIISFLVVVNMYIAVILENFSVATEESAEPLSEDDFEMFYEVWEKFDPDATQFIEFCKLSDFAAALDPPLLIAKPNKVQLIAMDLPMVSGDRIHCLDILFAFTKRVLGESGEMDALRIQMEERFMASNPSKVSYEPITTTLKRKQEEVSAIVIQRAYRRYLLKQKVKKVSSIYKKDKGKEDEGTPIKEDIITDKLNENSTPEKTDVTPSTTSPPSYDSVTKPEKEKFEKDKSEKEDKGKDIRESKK
Experimental: as §1, §2
NaV channel recordings were performed on oocytes clamped at −80 mV. Data were sampled at 20 kHz and filtered at 2 kHz. Inward sodium currents were elicited by a 50-ms depolarising step to 0 mV every 10 s. Once the peak current had stabilised (typically ~3 min), serial dilutions of peptides were applied to oocytes to obtain concentration-effect curves. Data were analysed using Clampfit 10.2 and Prism 6.0 (GrahPad Software, La Jolla, CA, USA, 2013). The Hill equation was fit to the data to obtain the half-maximal inhibitory concentration (IC50) values and Hill coefficient (nH). Data are presented as mean ± S.E.M. (n = number of oocytes). I-V relationships in the absence and presence of 300 nM and 1 μM peptide were obtained on oocytes clamped at −80 mV; families of currents were evoked by applying 50-ms depolarising steps from −60 mV to +70 mV with 10-mV increments every 10 s. […] Data were normalised to the maximal peak current and analysed using Clampfit 10.2 and Prism 6.0.

hNaV1.7 [4] = biological target: T3, hNaV1.7 (Homo sapiens, UniProt Q15858); experiment: Current-voltage (I-V) relationship / V0.5 of activation of hNaV1.7; assay type: cell-based; conditions: 300 nM and 1 μM; n = 6
T3 construct: expressed in transfected cells; host or cells: Xenopus oocytes (cRNA injection)
Experimental: as §1, with “QBI/059/13/ARC/NHMRC). […]” for “QBI/059/13/ARC/NHMRC).”
NaV channel recordings were performed on oocytes clamped at −80 mV. […] Data were analysed using Clampfit 10.2 and Prism 6.0 (GrahPad Software, La Jolla, CA, USA, 2013). […] Data were normalised to the maximal peak current and analysed using Clampfit 10.2 and Prism 6.0.

hNaV1.7 [5] = biological target: T3, hNaV1.7; experiment: Inhibition of hNaV1.7 currents, two-electrode voltage clamp in Xenopus oocytes; assay type: cell-based; conditions: TEVC; for IC50 / Hill coefficient, inhibition of hNaV1.7: Xenopus oocytes, n = 5–7; for IC50: 50-ms step to 0 mV from −80 mV every 10 s, ND96 pH 7.4 with 0.1% BSA, 20 °C–22 °C, Hill equation, mean ± S.E.M.; for Selectivity, hNaV1.7 versus rNaV1.2 and hNaV1.5 (in words): comparison with rNaV1.2 and hNaV1.5, Xenopus oocytes; for Hill coefficient, inhibition of hNaV1.7: from concentration-effect curve
Experimental: as §1, §2
NaV channel recordings were performed on oocytes clamped at −80 mV. Data were sampled at 20 kHz and filtered at 2 kHz. Inward sodium currents were elicited by a 50-ms depolarising step to 0 mV every 10 s. Once the peak current had stabilised (typically ~3 min), serial dilutions of peptides were applied to oocytes to obtain concentration-effect curves. Data were analysed using Clampfit 10.2 and Prism 6.0 (GrahPad Software, La Jolla, CA, USA, 2013). The Hill equation was fit to the data to obtain the half-maximal inhibitory concentration (IC50) values and Hill coefficient (nH). Data are presented as mean ± S.E.M. (n = number of oocytes). I-V relationships in the absence and presence of 300 nM and 1 μM peptide were obtained on oocytes clamped at −80 mV; families of currents were evoked by applying 50-ms depolarising steps from −60 mV to +70 mV with 10-mV increments every 10 s. After acquiring the control I–V curve, the first concentration of peptide was added and the inhibitory effect was allowed to plateau (a test pulse from −80 to 0 mV every 10 s) before obtaining an I–V curve in the presence of peptide. This was repeated for the second concentration of peptide. Data were normalised to the maximal peak current and analysed using Clampfit 10.2 and Prism 6.0.

hNaV1.7 [6] = biological target: T3, hNaV1.7; conditions: cited from earlier work
human NaV1.8 = conditions: cited from earlier work
From the text: (§3) Approximately 12% of spider toxins are C-terminally amidated. In addition to a possible role in peptide stability, C-terminal amidation can modulate biological activity. The 35-residue spider-venom peptide huwentoxin-IV (HwTx-IV) is a member of NaSpTx Family 1 isolated from venom of the tarantula Haplopelma schmidti (formerly known as Ornithoctonus huwena). Remarkably, native HwTx-IV with C-terminal amidation inhibits hNaV1.7 with is ~50-fold higher potency than a recombinant version with a C-terminal carboxylate group. Although not in the same peptide family as HwTx-IV (NaSpTx F ...

human NaV1.5 = conditions: cited from earlier work
From the text: as §3

Molecule: ProTx-II: most potent blocker of hNaV1.7 within NaSpTx family 3
- Mechanism of sodium conductance reduction (in words) [1]: reduces sodium conductance by trapping the domain II voltage sensor in the closed state
- Activity (channel type), NaSpTx3 alignment (NaV channels; Figure 8C annotation, no reference given): Nav
- IC50 (NaV1.2 [2]): 41 nM
- IC50 (NaV1.5): 79 nM
- Binding to NaV1.5 receptor site 4 (in words) (NaV1.5; mutagenesis study of NaV1.5): does not bind to receptor site 4 on the domain II voltage sensor
- Effect on NaV1.5 gating (in words) (NaV1.5; voltage-dependence of activation): shifts the voltage-dependence of activation of NaV1.5 to more positive potentials
- Voltage sensors bound (in words) (NaV1.2 [3]): binds to the voltage sensors in domains I, II and IV of rat NaV1.2; also recorded: binding to the voltage sensors in domains I, II (receptor site 4), and IV (receptor site 3) of NaV1.2

Molecule: CC[C@H](C)[C@H](NC(=O)[C@@H](NC(=O)[C@H](Cc1c[nH]c2ccccc12)NC(=O)[C@H](CC(=O)O)NC(=O)[C@H](Cc1c[nH]c2ccccc12)NC(=O)[C@@H](NC(=O)[C@@H]1CSSC[C@@H]2NC(=O)[C@H](CC(=O)O)NC(=O)[C@H](CO)NC(=O)[C@H](CC(=O)O)NC(=O)[C@H](CCCCN)NC(=O)[C@H](CO)NC(=O)[C@@H]3CSSC[C@H](NC(=O)[C@H](CCC(=O)O)NC(=O)[C@H](CC(C)C)NC(=O)[C@H](Cc4c[nH]cn4)NC(=O)[C@H](C)NC(=O)[C@H](CSSC[C@H](NC(=O)[C@H](C)N)C(=O)N[C@@H](CCCNC(=N)N)C(=O)N[C@@H](CCC(=O)O)C(=O)N[C@@H](CC(C)C)C(=O)N[C@@H](CC(C)C)C(=O)NCC(=O)NCC(=O)N3)NC2=O)C(=O)N[C@@H](CCCNC(=N)N)C(=O)N[C@@H](CCCCN)C(=O)N[C@@H](CCCCN)C(=O)N[C@@H](Cc2c[nH]c3ccccc23)C(=O)N2CCC[C@H]2C(=O)N[C@@H](Cc2ccc(O)cc2)C(=O)N[C@@H](Cc2c[nH]cn2)C(=O)N1)C(C)C)[C@@H](C)O)C(N)=O [Phlo1a] (H-ACRELLGGCSKDSDCCAHLECRKKWPYHCVWDWTI-NH2; disulfide 2-16, 9-21, 15-29 (inferred); N-terminus assumed)
- inhibition at 1 µM (hNaV1.5; 1 μM peptide, 50-ms step to 0 mV from −80 mV every 10 s): < 20%
- Effect on hNaV1.5 (in words) (hNaV1.5): only minor inhibitory activity
- inhibition at 1 µM (rNaV1.2): < 20%
- Effect on rNaV1.2 (in words) (rNaV1.2): only minor inhibitory activity
- Effect on I-V relationship of hNaV1.7 (in words) (hNaV1.7 [4]): concentration-dependent, depolarising shifts in the I-V relationship for hNaV1.7
- IC50 (hNaV1.7 [5]): 459 nM
- Selectivity, hNaV1.7 versus rNaV1.2 and hNaV1.5 (in words) (hNaV1.7 [5]): inhibited rNaV1.2 and hNaV1.5 much less potently than hNaV1.7; also recorded: inhibit hNaV1.7 more potently than rNaV1.2 and hNaV1.5; also recorded: high level of selectivity for NaV1.7 over NaV1.2 and NaV1.5
- Hill coefficient, inhibition of hNaV1.7 (hNaV1.7 [5]): 0.87

Molecule: ProTx-I
- Blockade of human NaV1.7 (in words) (hNaV1.7 [6]): potent blocker
- Effect on NaV channel activation (in words) (NaV channels): inhibit NaV channels by shifting the threshold for channel activation to more positive potentials
- Blockade of human NaV1.8 (in words) (human NaV1.8): potent blocker
- Blockade of human NaV1.5 (in words) (human NaV1.5): potent blocker

Molecule: CC(C)C[C@@H]1NC(=O)[C@H](CC(C)C)NC(=O)[C@H](CCC(=O)O)NC(=O)[C@H](CCCNC(=N)N)NC(=O)[C@@H](NC(=O)[C@H](C)N)CSSC[C@@H]2NC(=O)[C@@H]3CSSC[C@@H](C(=O)N[C@H](C(=O)N[C@@H](Cc4c[nH]c5ccccc45)C(=O)N[C@@H](CC(=O)O)C(=O)N[C@@H](Cc4c[nH]c5ccccc45)C(=O)N[C@H](C(=O)N[C@@H](Cc4ccccc4)C(N)=O)[C@@H](C)O)C(C)C)NC(=O)[C@H](Cc4c[nH]cn4)NC(=O)[C@H](Cc4ccc(O)cc4)NC(=O)[C@@H]4CCCN4C(=O)[C@H](Cc4c[nH]c5ccccc45)NC(=O)[C@H](CCCCN)NC(=O)[C@H](CCCCN)NC(=O)[C@H](CCCNC(=N)N)NC(=O)[C@H](CSSC[C@H](NC(=O)CNC(=O)CNC1=O)C(=O)N[C@@H](CO)C(=O)N[C@@H](CCCCN)C(=O)N[C@@H](CC(=O)O)C(=O)N[C@@H](CO)C(=O)N[C@@H](CC(=O)O)C(=O)N3)NC(=O)[C@H](CCC(=O)O)NC(=O)[C@H](CC(C)C)NC(=O)[C@H](Cc1c[nH]cn1)NC(=O)[C@H](C)NC2=O [Phlo1b] (H-ACRELLGGCSKDSDCCAHLECRKKWPYHCVWDWTF-NH2; disulfide 2-16, 9-21, 15-29 (inferred); N-terminus assumed)
- Effect on hNaV1.5 (in words) (hNaV1.5): only minor inhibitory activity; also recorded: a similar effect as Phlo1a at hNaV1.5
- inhibition at 1 µM (rNaV1.2): 37%
- Effect on rNaV1.2 (in words) (rNaV1.2): only minor inhibitory activity; also recorded: slightly more potent at rNaV1.2
- Effect on I-V relationship of hNaV1.7 (in words) (hNaV1.7 [4]): concentration-dependent, depolarising shifts in the I-V relationship for hNaV1.7
- IC50 (hNaV1.7 [5]): 360 nM
- Selectivity, hNaV1.7 versus rNaV1.2 and hNaV1.5 (in words) (hNaV1.7 [5]): inhibit hNaV1.7 more potently than rNaV1.2 and hNaV1.5
- Hill coefficient, inhibition of hNaV1.7 (hNaV1.7 [5]): 1.04

Molecule: HwTx-IV
- Fold higher potency at hNaV1.7, native amidated vs recombinant C-terminal carboxylate (hNaV1.7 [6]; native HwTx-IV (C-terminal amide) versus recombinant version with C-terminal carboxylate, no reference printed at the sentence (isolation: ref 24)): ~ 50 fold
